# In PubChem BioAssay (NCI):
#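 Test compounds were applied to cells in 96-well plates for 48 hours at 5 doses. Abbreviation: GI50, concentration required for 50% inhibition of growth. TGI: concentration producing complete growth inhibition.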
# Experiments:
# Assay in all cases: NCI anticancer screen, dose series, 48 h
# RXF 393 renal = test system: RXF 393 renal
# OVCAR-4 ovarian = test system: OVCAR-4 ovarian
# OVCAR-8 ovarian = test system: OVCAR-8 ovarian
# HS 578T breast = test system: HS 578T breast
# PC-3 prostate = test system: PC-3 prostate
# OVCAR-3 ovarian = test system: OVCAR-3 ovarian
# COLO 205 colon = test system: COLO 205 colon
# 786-0 renal = test system: 786-0 renal
# HCT-116 colon = test system: HCT-116 colon
# SW-620 colon = test system: SW-620 colon
# MOLT-4 leukemia = test system: MOLT-4 leukemia
# MDA-MB-231 breast = test system: MDA-MB-231 breast
# BT-549 breast = test system: BT-549 breast
# CCRF-CEM leukemia = test system: CCRF-CEM leukemia
# SK-MEL-5 melanoma = test system: SK-MEL-5 melanoma
# ACHN renal = test system: ACHN renal
# HT29 colon = test system: HT29 colon
# SF-539 CNS = test system: SF-539 CNS
# UACC-257 melanoma = test system: UACC-257 melanoma
# U251 CNS = test system: U251 CNS
# NCI-H522 lung = test system: NCI-H522 lung
# SF-268 CNS = test system: SF-268 CNS
# T-47D breast = test system: T-47D breast
# UACC-62 melanoma = test system: UACC-62 melanoma
# UO-31 renal = test system: UO-31 renal
# M14 melanoma = test system: M14 melanoma
# TK-10 renal = test system: TK-10 renal
# A498 renal = test system: A498 renal
# SK-MEL-28 melanoma = test system: SK-MEL-28 melanoma
# MDA-MB-435 = test system: MDA-MB-435
# HOP-92 NSCLC = test system: HOP-92 NSCLC
# SF-295 CNS = test system: SF-295 CNS
# RPMI-8226 leukemia = test system: RPMI-8226 leukemia
# SR leukemia = test system: SR leukemia
# DU-145 prostate = test system: DU-145 prostate
# HOP-62 NSCLC = test system: HOP-62 NSCLC
# NCI-H23 lung = test system: NCI-H23 lung
# HCC-2998 colon = test system: HCC-2998 colon
# MCF7 breast = test system: MCF7 breast
# NCI-H226 lung = test system: NCI-H226 lung
# IGROV1 ovarian = test system: IGROV1 ovarian
# SNB-19 CNS = test system: SNB-19 CNS
# NCI-H460 lung = test system: NCI-H460 lung
# SK-MEL-2 melanoma = test system: SK-MEL-2 melanoma
# KM12 colon = test system: KM12 colon
# HL-60(TB) leukemia = test system: HL-60(TB) leukemia
# NCI/ADR-RES ovarian = test system: NCI/ADR-RES ovarian
# SNB-75 CNS = test system: SNB-75 CNS
# SN12C renal = test system: SN12C renal
# SK-OV-3 ovarian = test system: SK-OV-3 ovarian
# HCT-15 colon = test system: HCT-15 colon
# LOX IMVI melanoma = test system: LOX IMVI melanoma
# OVCAR-5 ovarian = test system: OVCAR-5 ovarian
# A549 NSCLC = test system: A549 NSCLC
# EKVX NSCLC = test system: EKVX NSCLC
# K-562 leukemia = test system: K-562 leukemia
# CAKI-1 renal = test system: CAKI-1 renal
smiles,measurement,setting,value
CC1(C)CCC(c2ccc(Cl)cc2)=C(CN2CCN(c3ccc(C(=O)NS(=O)(=O)c4ccc(N[C@H](CCN5CCOCC5)CSc5ccccc5)c(S(=O)(=O)C(F)(F)F)c4)cc3)CC2)C1,GI50,RXF 393 renal,322 nM
same,TGI,RXF 393 renal,1940 nM
same,GI50,OVCAR-4 ovarian,1220 nM
same,TGI,OVCAR-4 ovarian,2520 nM
same,GI50,OVCAR-8 ovarian,2190 nM
same,TGI,OVCAR-8 ovarian,5180 nM
same,GI50,HS 578T breast,2660 nM
same,TGI,HS 578T breast,> 24500 nM
same,GI50,PC-3 prostate,1680 nM
same,TGI,PC-3 prostate,4500 nM
same,GI50,OVCAR-3 ovarian,1620 nM
same,TGI,OVCAR-3 ovarian,3000 nM
same,GI50,COLO 205 colon,1240 nM
same,TGI,COLO 205 colon,2680 nM
same,GI50,786-0 renal,1880 nM
same,TGI,786-0 renal,3400 nM
same,GI50,HCT-116 colon,1690 nM
same,TGI,HCT-116 colon,3110 nM
same,GI50,SW-620 colon,1790 nM
same,TGI,SW-620 colon,3800 nM
same,GI50,MOLT-4 leukemia,124 nM
same,GI50,MDA-MB-231 breast,642 nM
same,TGI,MDA-MB-231 breast,2170 nM
same,GI50,BT-549 breast,1960 nM
same,TGI,BT-549 breast,3600 nM
same,GI50,CCRF-CEM leukemia,61.8 nM
same,TGI,CCRF-CEM leukemia,7430 nM
same,GI50,SK-MEL-5 melanoma,1570 nM
same,TGI,SK-MEL-5 melanoma,2930 nM
same,GI50,ACHN renal,1720 nM
same,TGI,ACHN renal,3140 nM
same,GI50,HT29 colon,1910 nM
same,TGI,HT29 colon,3970 nM
same,GI50,SF-539 CNS,2080 nM
same,TGI,SF-539 CNS,4220 nM
same,GI50,UACC-257 melanoma,1630 nM
same,TGI,UACC-257 melanoma,3400 nM
same,GI50,U251 CNS,1900 nM
same,TGI,U251 CNS,3430 nM
same,GI50,NCI-H522 lung,1890 nM
same,TGI,NCI-H522 lung,5030 nM
same,GI50,SF-268 CNS,2310 nM
same,TGI,SF-268 CNS,5550 nM
same,GI50,T-47D breast,2050 nM
same,TGI,T-47D breast,5250 nM
same,GI50,UACC-62 melanoma,1430 nM
same,TGI,UACC-62 melanoma,2920 nM
same,GI50,UO-31 renal,1740 nM
same,TGI,UO-31 renal,3210 nM
same,GI50,M14 melanoma,1830 nM
same,TGI,M14 melanoma,3380 nM
same,GI50,TK-10 renal,1280 nM
same,TGI,TK-10 renal,2670 nM
same,GI50,A498 renal,19.1 nM
same,TGI,A498 renal,115 nM
same,GI50,SK-MEL-28 melanoma,1740 nM
same,TGI,SK-MEL-28 melanoma,3220 nM
same,GI50,MDA-MB-435,1640 nM
same,TGI,MDA-MB-435,3170 nM
same,GI50,HOP-92 NSCLC,45.5 nM
same,TGI,HOP-92 NSCLC,245 nM
same,GI50,SF-295 CNS,1520 nM
same,TGI,SF-295 CNS,3200 nM
same,GI50,RPMI-8226 leukemia,342 nM
same,TGI,RPMI-8226 leukemia,4330 nM
same,GI50,SR leukemia,2340 nM
same,TGI,SR leukemia,> 25900 nM
same,GI50,DU-145 prostate,2760 nM
same,TGI,DU-145 prostate,7120 nM
same,GI50,HOP-62 NSCLC,1730 nM
same,TGI,HOP-62 NSCLC,3260 nM
same,GI50,NCI-H23 lung,1740 nM
same,TGI,NCI-H23 lung,3960 nM
same,GI50,HCC-2998 colon,343 nM
same,TGI,HCC-2998 colon,1670 nM
same,GI50,MCF7 breast,2110 nM
same,TGI,MCF7 breast,5510 nM
same,GI50,NCI-H226 lung,1620 nM
same,TGI,NCI-H226 lung,3130 nM
same,GI50,IGROV1 ovarian,2370 nM
same,TGI,IGROV1 ovarian,5250 nM
same,GI50,SNB-19 CNS,2680 nM
same,TGI,SNB-19 CNS,9140 nM
same,GI50,NCI-H460 lung,1870 nM
same,TGI,NCI-H460 lung,3710 nM
same,GI50,SK-MEL-2 melanoma,1860 nM
same,TGI,SK-MEL-2 melanoma,4350 nM
same,GI50,KM12 colon,1720 nM
same,TGI,KM12 colon,3420 nM
same,GI50,HL-60(TB) leukemia,568 nM
same,TGI,HL-60(TB) leukemia,3840 nM
same,GI50,NCI/ADR-RES ovarian,3200 nM
same,TGI,NCI/ADR-RES ovarian,11700 nM
same,GI50,SNB-75 CNS,2050 nM
same,TGI,SNB-75 CNS,4160 nM
same,GI50,SN12C renal,1530 nM
same,TGI,SN12C renal,3330 nM
same,GI50,SK-OV-3 ovarian,1280 nM
same,TGI,SK-OV-3 ovarian,2680 nM
same,GI50,HCT-15 colon,2020 nM
same,TGI,HCT-15 colon,4350 nM
same,GI50,LOX IMVI melanoma,1400 nM
same,TGI,LOX IMVI melanoma,2740 nM
same,GI50,OVCAR-5 ovarian,1850 nM
same,TGI,OVCAR-5 ovarian,4050 nM
same,GI50,A549 NSCLC,1730 nM
same,TGI,A549 NSCLC,3580 nM
same,GI50,EKVX NSCLC,1430 nM
same,TGI,EKVX NSCLC,3240 nM
same,GI50,K-562 leukemia,2450 nM
same,TGI,K-562 leukemia,8020 nM
same,GI50,CAKI-1 renal,1720 nM
same,TGI,CAKI-1 renal,4090 nM
